IC50 data for one compound are collected here from article PMC9143577, “Cationic Geminoid Peptide Amphiphiles Inhibit DENV2 Protease, Furin, and Viral Replication” (Molecules, 2022).

For orientation: IC50 means the midpoint of a concentration-inhibition curve. Lower therefore signals higher potency.

The target of the assay is DENV2 protease (Dengue virus type 2, UniProt P14340). Put plainly: biochemical. Here is the method: IC50 values were determined in CDD Vault using the Levenberg–Marquardt algorithm for fitting a Hill equation to dose-response data.
DENV2 protease, sequence (P14340 1476-1653): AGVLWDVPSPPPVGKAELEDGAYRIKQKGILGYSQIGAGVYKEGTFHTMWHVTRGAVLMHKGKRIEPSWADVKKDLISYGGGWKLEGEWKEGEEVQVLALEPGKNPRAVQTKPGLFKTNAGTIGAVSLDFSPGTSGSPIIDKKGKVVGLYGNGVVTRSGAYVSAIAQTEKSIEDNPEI
DENV2 protease, sequence (P14340 1398-1437): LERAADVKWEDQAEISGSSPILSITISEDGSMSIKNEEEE
Enzyme expression and purification
DENV2 Protease Preparation. The enzyme was expressed and purified as previously described (ref. S1). Briefly, the vector with CF40 fused to NS3pro was used for high- level inducible expression of recombinant enzyme, tagged on the N-t erminus with hexahistidine. E. coli strain SG13009 cells were transformed with the expression plasmid and grown in kanamycin at 37 °C until the absorb ance at 600 nm r each ed a v alue of 0.6. Cells were induced for expression by the addition of isopropyl-β-D-thiogalactopyranose to a final concentration of 1 mM and incubated for additional 3 h at 30 °C. The cells were harvested by centrifugation, resuspended in 1 mL of a lysis buffer, subjected to sonication, and centrifuged again. The supernatant was collected and passed through a 2- mL column of nitrilotriacetic acid-agarose (Qiagen) loaded with Ni2+. The column was extensively washed with buffer containing […], and the protein was then eluted from then column in buffer containing 100 mM imidazole.
Elution samples were analyzed by 15% SDS-PAGE and the substrate Z-RR- MCA was used to distinguish the activity of DENV2 protease from that of contaminating bacterial […]
proteases. […]

For the compound `CCCCCCCCCCCCCCCCNC(=O)[C@H](CCCCN)NC(=O)[C@H](CCCCN)NC(=O)CCCCCCCCCCCCCCC` [Compound 1], the IC50 turned out to be 4.25 ± 0.27 µM.
